{"source": "patent US12102686B2", "about": "“Delivery systems and methods for reactive hydroxyl-containing compounds” (priority 2018, dated 2024)", "assay": "Free curcumin stability and consumption in the presence of AAPH (absorbance at 420 nm, HPLC)", "type": "physicochemical", "protocol": "Periodic samples were collected and read at 420 nm using a Cary 50 UV-Vis Microplate Reader spectroscopy instrument to monitor absorbance of solution over 24 hours.", "data": [{"smiles": "COc1cc(/C=C/C(=O)CC(=O)/C=C/c2ccc(O)c(OC)c2)ccc1O", "note": "[Curcumin]", "values": [{"measurement": "time curcumin was stable in aqueous solution (no significant change in absorbance, no precipitation)", "setting": "50 μg/mL curcumin in 0.1% (w/v) Tween 80 PBS (pH 7.4), 37° C., no AAPH", "value": "over 24 hours"}, {"measurement": "time after which the amount of curcumin decreases to 20%", "setting": "10 mM AAPH", "value": 4, "unit": "h"}, {"measurement": "curcumin consumed", "setting": "10 mM AAPH solution, within the first 8 hours", "value": 90, "unit": "%"}, {"measurement": "time after which the amount of curcumin decreases to 20%", "setting": "100 mM AAPH", "value": 0.333, "unit": "h"}, {"measurement": "time of finality of curcumin consumption, experimental", "setting": "100 mM AAPH", "value": 8, "unit": "h"}, {"measurement": "curcumin consumed", "setting": "100 mM AAPH solution, within the first hour", "value": 90, "unit": "%"}, {"measurement": "curcuminoid consumption susceptibility by AAPH (HPLC peak)", "setting": "versus demethoxycurcumin and bisdemethoxycurcumin, FIG. 3", "value": "diminished at a faster rate"}]}]}
